Data: patent publication US9849198B2, “Discrete imaging of hepatic oxidative and nitrosative stress with two-channel nanoparticles for in vivo drug safety screening” (The Board of Trustees of the Leland Stanford Junior …, priority 2013, dated 2017)

Assays:
[1] = tested on: APAP-induced hepatic ROS and RNS production; test: In vivo monitoring of remediation of APAP-induced hepatotoxicity with enzyme inhibitors and antioxidant scavengers; parameters: species or system mice; details: for FL index / ONOO/HOCl production in liver / luminescence emission / H2O2 production in liver: APAP 300 mg/kg i.p. with GSH 200 mg/kg i.v., 1-ABT 2×100 mg/kg i.p. or t-1,2-DCE 0.2 mg/kg i.p.
Method: To this end, the effects of inhibitors of APAP bioactivation on in vivo hepatic ROS and RNS production were evaluated using the CF-SPNs of the disclosure (FIGS. 4A, 4C, and 4D).
Without wishing to be bound by any one theory, a mechanism for APAP bioactivation involves CYP450-mediated oxidation to an iminoquinone, N-acetylparaquinonimine (NAPQI), which can bind directly to cellular proteins to induce mitochondrial dysfunction and the production of ONOO, or undergo reduction by molecular oxygen to form superoxide (O2.^−) and H2O2 (FIG. 4B).
For inhibitor studies, animals were treated with 200 mg/kg of GSH intravenously 5 min prior to drug treatment (James et al., (2003) Toxicol. Sci. 75: 458-467), with 0.2 mg/kg t-1,2-DCE intraperitoneally 2 h prior to drug treatment (Jackson et al., (2000) Toxicol. Sci. 55: 266-273), or with 100 mg/kg 1-ABT intraperitoneally 12 and 24 h prior to drug treatment (as described in Jackson et al., (2000) Toxicol. Sci. 55: 266-273).

liver H2O2 = test: Extension of H2O2 detection window by readministration of CF-SPN after APAP; type: in vivo, mice; details: APAP 300 mg/kg i.p.
Method: FIG. 10A illustrates extension luminescent images of the time course of H2O2 detection after drug challenge by readministration of CF-SPN. Mice were administered 300 mg/kg APAP (top row, 1-4) or saline (bottom row, 5-8) i.p., followed by the administration of 0.8 mg CF-SPN i.v. After 25 min, CF-NP was readministered i.v.
FIG. 10B is a graph illustrating the quantitation of liver luminescence. Black arrow in indicates CF-SPN readministration. Numbers on images correspond to time points indicated on plot.
This elevation in luminescence from APAP overdose was sustained over the time course of imaging (FIG. 3B). However, due to the baseline consumption of CPPO that had been observed in mouse serum (FIG. 7B), the ability to extend the H2O2 detection window with the re-administration of CF-SPN was assessed (FIG. 10). The re-administration of CF-SPN following treatment with a hepatotoxic dose of APAP (300 mg/kg) produced an elevated luminescence signal having approximately 50% of the intensity of the initial CF-SPN injection.

[2] = tested on: drug-induced hepatic oxidative and nitrosative stress; test: Real-time in vivo CF-SPN imaging of drug-induced hepatotoxicity (chemiluminescence and fluorescence index); parameters: species or system female nude mice
Method: Female nude mice were administered a given dose of APAP intraperitoneally, anesthetized, and fitted with tail vein catheters.
All animal experiments involved 8-10 week old female nude mice (Charles River Laboratories International, Inc., Mass., USA). Animals were fasted for 8 h prior to imaging for all drug-induced hepatotoxicity imaging. Animals were treated intraperitoneally with sterilized saline solutions of APAP (10 mg/mL) or INH (10 mg/mL) and were then anesthetized with intraperitoneal injection of 100 mg/kg ketamine and 10 mg/mL xylazine. A tail vein catheter was inserted, and the mice were placed in an IVIS® Spectrum imaging system. Fifteen minutes after the administration of drug, 0.8 mg CF-SPN was injected intravenously through the tail vein catheter, and imaging began immediately. Luminescence images were acquired for 3 min with an open filter, and fluorescence images were acquired using autoexposure with excitation of 580±10 nm, and emission at both 680±10 nm and 820±10 nm.
Luminescence data was processed using Living Image software (v. 4.3.1, Perkin Elmer, Mass., USA) for all experiments, in addition to fluorescence data for biodistribution experiments. For fluorescent ratiometric mapping of liver intensity, image scale bars were normalized, with the scale set to a red color scheme.
Fluorescence images without photograph overlay were exported as TIFF, read into Matlab® (v. 8.0.0.783, The MathWorks Inc., CO, USA) where the percent difference between the fluorescence intensity at 680 nm and 820 nm was mapped for the liver region of interest. To plot the fluorescence index (FL index) over time, fluorescence intensities of the liver region of interest were extracted for images acquired with emission at 680 nm and at 820 nm using Living Image software. The intensity values, measured in units of radiance efficiency, were exported to Excel® where the percent difference in emission intensity at 680 nm and 820 nm was calculated. Finally, the FL index was calculated as the ratio of the percent difference of drug treated animals to that of control animals. All statistical analyses were performed using Prism software (v. 5.0c, GraphPad Software Inc., CA, USA).

liver tissue = test: Histology (H&E), nitrotyrosine immunohistochemistry and TUNEL staining of liver after drug challenge; type: in vivo, mice
Method: The correlation of an imaging biomarker with histological changes in the tissue of interest is desirable to validate the use of a biomarker for indicating an intended pathological outcome. To this end, histological and immunohistochemical analysis of liver tissue was performed on mice 45 min (FIGS. 3D and 11) and 180 min (FIGS. 3E and 11) following treatment with the indicated doses of APAP.
Animals were imaged longitudinally for the indicated lengths of time, warmed until observable sternal recumbence, and then returned to their cage. Animals were euthanized 180 min following drug treatment, and their livers were resected and placed into buffered formalin for histological examination. A separate set of animals was fasted, treated with drug, and their livers were resected after euthanasia to provide tissues for histological examination 45 min following drug treatment.
All tissues were embedded in paraffin prior to 10 micron sectioning. Histology samples were stained by hematoxylin and eosin under standard protocols. Immunohistochemistry samples were processed using an anti-nitrotyrosine primary antibody (Life Technologies Inc., NY, USA) at 1:500 dilution, with color development according to the protocol described in the DAKO LSB+ kit. Endogenous peroxidases were quenched prior to processing. TUNEL staining was performed according to the manufacturer instructions using the ApopTag Plus Peroxidase In Situ Apoptosis Kit (EMD Millipore, Mass., USA). All images were acquired using an Olympus IX2-UCB (Olympus America Inc., PA, USA) inverted fluorescence microscope equipped with a Nuance (CRi Inc., MA, USA) hyperspectral camera capable of brightfield full color imaging.

[3] = tested on: drug-induced liver production of H2O2; details: APAP 300 mg/kg i.p.; 0.2 mg luminol i.v., dose equal to CPPO in 0.8 mg CF-SPN
[4] = anti-tuberculosis chemotherapy; cited from earlier work
[5] = 200, 100, 50 mg/kg i.p., 0.8 mg CF-SPN i.v.

Nn1nnc2ccccc21 [1-ABT, 1-aminobenzotriazole]
duration of H2O2 production after CF-SPN administration ([1]; APAP 300 mg/kg i.p. with 1-ABT 2×100 mg/kg i.p.): less than 20 min | FL index / ONOO/HOCl production in liver [1]: suppressed ONOO/HOCl production to the same extent | luminescence emission / H2O2 production in liver [1]: intense but short-lived

CC(=O)Nc1ccc(O)cc1 [APAP, acetaminophen]
time after administration within which a significant decrease in H2O2 production occurs (liver H2O2): ≤ 60 min | liver chemiluminescence (H2O2) ([2]; 150 mg/kg and 75 mg/kg i.p., 0.8 mg CF-SPN i.v.): only baseline luminescence similar to untreated mice | liver chemiluminescence (H2O2) ([2]; 300 mg/kg i.p., by 18 min after start of imaging, 0.8 mg CF-SPN i.v.): significant enhancement in signal | elevation in percent difference between fluorescence emission at 680 nm and 820 nm (ONOO/HOCl) ([2]; 53 min after CF-SPN administration, doses 300, 150, 75 mg/kg i.p.): only observed for mice receiving 300 mg/kg APAP | timing of increase in ONOO/HOCl generation (FL index) ([2]; APAP overdose 300 mg/kg i.p.): later than the generation of H2O2 | foci positive for protein nitrotyrosyl residues or TUNEL (DNA fragmentation) (liver tissue; 45 min after drug administration): no foci positive | histological changes in liver tissue (hematoxylin/eosin) (liver tissue; 45 min after drug challenge, any dose level (300, 150, 75 mg/kg)): No histological changes | immunohistochemical and histological findings in liver (liver tissue; 180 min after administration, 300 mg/kg): significant protein nitrotyrosyl and TUNEL-positive foci, as well as hepatocellular degeneration characteristic of APAP-induced oncotic necrosis | immunohistochemical or histological changes to liver tissue (liver tissue; lower doses (150 mg/kg, 75 mg/kg)): did not induce immunohistochemical or histological changes to liver tissue

Nc1cccc2c(=O)[nH][nH]c(=O)c12 [Luminol, luminol]
luminescent signal from liver after APAP overdose [3]: did not produce any detectable luminescent signal

Cl/C=C/Cl [t-1,2-DCE, trans-1,2-dichloroethylene]
FL index / ONOO/HOCl production in liver [1]: suppressed ONOO/HOCl production to the same extent | luminescence emission / H2O2 production in liver [1]: completely prevent H2O2 production

N[C@@H](CCC(=O)N[C@@H](CS)C(=O)NCC(=O)O)C(=O)O [GSH, glutathione]
FL index / ONOO/HOCl production in liver [1]: reduced level of H2O2 and ONOO/HOCl production relative to mice receiving APAP alone, but still elevated | luminescence emission / H2O2 production in liver [1]: reduced level of H2O2 and ONOO/HOCl production relative to mice receiving APAP alone, but still elevated

NNC(=O)c1ccncc1 [INH, isoniazid]
patients with associated hepatotoxicity [4]: ≤ 25% | dose dependence of H2O2 production (chemiluminescence) [2, 5]: threshold dose-type production | dose dependence of ONOO/HOCl production (fluorescence index) [2, 5]: dose-dependent enhancement | kinetics of oxidative stress compared with APAP ([2]; i.p., chemiluminescent channel): more short-lived oxidative burst | kinetics of nitrosative stress compared with APAP ([2]; i.p., fluorescent channel): more rapidly developed and sustained induction of nitrosative stress | severity of liver tissue degradation (histology, H&E) (liver tissue; 180 min after drug administration, 200, 100, 50 mg/kg i.p.): dose-dependent increase in the severity of liver tissue degradation
